Results on 14 molecules are retold here after ChEMBL document CHEMBL1135172, “High-throughput synthesis optimization of sulfonamide NPY Y5 antagonists” (Bioorg Med Chem Lett, 2002).

Where only a bound is given, the exact number is not on record here.

The assay has as its target T1, Neuropeptide Y receptor type 5 (Homo sapiens, UniProt Q15761).
T1 sequence (Q15761 whole entry): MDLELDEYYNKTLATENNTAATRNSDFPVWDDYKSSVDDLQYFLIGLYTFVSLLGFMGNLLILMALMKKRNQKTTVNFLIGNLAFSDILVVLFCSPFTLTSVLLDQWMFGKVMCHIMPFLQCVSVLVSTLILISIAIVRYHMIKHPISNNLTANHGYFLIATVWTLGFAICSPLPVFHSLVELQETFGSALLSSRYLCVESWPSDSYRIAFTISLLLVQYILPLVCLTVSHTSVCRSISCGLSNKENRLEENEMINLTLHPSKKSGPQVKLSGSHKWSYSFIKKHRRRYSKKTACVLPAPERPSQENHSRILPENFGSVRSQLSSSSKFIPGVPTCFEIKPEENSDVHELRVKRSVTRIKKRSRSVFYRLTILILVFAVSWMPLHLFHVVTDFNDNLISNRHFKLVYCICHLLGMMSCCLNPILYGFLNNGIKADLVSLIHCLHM
As to the kind of experiment: Displacement of [125I]PYY from human Neuropeptide Y receptor type 5 in COS-7 cell membranes. For orientation: In a radioligand displacement assay an active substance lowers the binding of a labelled ligand.
For orientation: Ki means the equilibrium dissociation constant of an inhibitor or competing ligand from its target. For the molecule `Cc1ccc(S(=O)(=O)NC(Cc2ccccc2)C(=O)NCCCCCCNS(=O)(=O)c2cccc3ccccc23)cc1` (centres undefined), the Ki stood at 426 nM.

As for `O=C(NCCCCCCNS(=O)(=O)c1cccc2ccccc12)Nc1cccc2ccccc12`, the Ki amounted to 231 nM.

As for `O=C(NC[C@H]1CC[C@H](CNS(=O)(=O)c2ccc3ccccc3c2)CC1)C1CCc2ccccc2C1` (some centres undefined), the Ki was more than 100000 nM.

`O=C(NC[C@H]1CC[C@H](CNS(=O)(=O)c2ccccc2[N+](=O)[O-])CC1)Nc1cccc2ccccc12` yielded a Ki of 103 nM.

As for `O=C(NCCCCCCNS(=O)(=O)c1ccccc1[N+](=O)[O-])Nc1cccc2ccccc12`, the Ki turned out to be 151 nM.

Regarding `O=C(NCCCCCCNS(=O)(=O)c1ccccc1[N+](=O)[O-])c1ccc2ccccc2c1`, affinity was put at a Ki of 412 nM.

The molecule `Cc1ccc(S(=O)(=O)NC(Cc2ccccc2)C(=O)NC[C@H]2CC[C@H](CNS(=O)(=O)c3ccc4ccccc4c3)CC2)cc1` (some centres undefined) registered a Ki of 199 nM.

Molecule `O=S(=O)(NC[C@H]1CC[C@H](CNCc2ccc3c(c2)OCCO3)CC1)c1cccc2ccccc12` gave a Ki of 12 nM.

As for `O=C(NCCCCNS(=O)(=O)c1ccccc1[N+](=O)[O-])Nc1cccc2ccccc12`, the Ki amounted to 724 nM.

Take `O=C(NC[C@H]1CC[C@H](CNS(=O)(=O)c2cccc3ccccc23)CC1)C1CCc2ccccc2C1` (some centres undefined): the Ki is 4120 nM.

Molecule `O=C(NCCCCCCNS(=O)(=O)c1ccccc1[N+](=O)[O-])C1CCc2ccccc2C1` (centres undefined) registered a Ki of 46 nM.

Molecule `O=C(NCCCCCCNS(=O)(=O)c1cccc2ccccc12)C1CCc2ccccc2C1` (centres undefined) gave a Ki of 724 nM.

On to `O=C(NC[C@H]1CC[C@H](CNS(=O)(=O)c2ccc3cccc([N+](=O)[O-])c3c2)CC1)C1CCc2ccccc2C1` (some centres undefined), for which the Ki amounted to 724 nM.

Molecule `O=C(NC[C@H]1CC[C@H](CNS(=O)(=O)c2cccc3ccccc23)CC1)Nc1ccc(Cl)c(Cl)c1` registered a Ki of 95 nM.
